Results from US11737462B2, “Methods for modulating plant response to environmentally-induced stress” (Howard University, priority 2012, dated 2023).

What was measured:
RACK1A = RACK1A (Arabidopsis thaliana, UniProt O24456); experiment: in-vitro assay of tyrosine phosphorylation (Y248) based homodimerization of RACK1A; assay type: biochemical; settings: in-vitro assay
Source text: A crystal structure of Arabidopsis thaliana RACK1 protein has been reported. Deducing the crystal structure of the Arabidopsis RACK1A protein highlighted the potential functional residues of the protein. Noteworthy in the structure was the functionally conserved tyrosine phosphorylation residue (Y248) that has been implicated in RACK1A function. Therefore, it was undertaken to identify a chemical inhibitor of Y248 phosphorylation that would serve as a potential “anti-stress” compound in countering environmental stresses in plants. In order to identify small compounds occupying the Y248 pocket, docking simulations with a subset of 30,000 compounds were performed. Based on ranking with an energy cut-off of 25 kcal/mol, 3,011 compounds were then selected. Upon further re-ranking, 46 lead compounds were identified and 11 compounds were screened for their efficacy in an in-vitro assay. […] Those six compounds include SD-29, SD-29-9, SD-29-11, SD-29-22, SD-34, and SD-125.

[1] = tested on: homodimerized RACK1A maintaining yeast cells (AA); experiment: UV-B induced cell death in homodimerized RACK1A maintaining yeast cells (AA); assay type: cell-based; settings: 60 μM overnight, Live/dead staining, vs DMSO-only control
Experimental: (§1) In this experiment, yeast cells were irradiated with UV-B light to analyze the effect of SD-29 analogs on UV-B induced cell death. The yeast cells were developed to assay for RACK1A homodimerization assays using split-ubiquitin technique. In this assay, homodimerized RACK1A maintaining yeast cells (AA) were grown overnight in the presence of 60 μM of the indicated compounds. Yeast cells treated overnight with SD-29-7, SD-29-9, and SD-29-11 with and without exposure to UV-B were compared to a DMSO-only control. The cells were stained with Invitrogen's Live/dead cell assay system where dead cells appeared as intensely fluorescent with brightness under a fluorescent microscope.
(§2) In this experiment, yeast was treated with UV-B to analyze the effect of SD-29-12 on UV-B induced cell death. Two groups of yeast were used. One was the yeast used in Example 6 (“AA”) and the other (“YY”) is a Y248F mutant. The AA cells can homodimerize but YY cells cannot.
(§3) The yeast was treated overnight with SD-29-12 and then followed the same protocol as described in Example 6.

Y248F mutant yeast (YY) = experiment: UV-B induced cell death in Y248F mutant yeast (YY); assay type: cell-based; settings: treated overnight, Live/dead staining
Experimental: as §1, §2, §3

plant = experiment: salt sensitivity when applied to a plant; settings: in vivo
Arabidopsis plants = experiment: high temperature stress (42° C.) in Arabidopsis plants; assay type: in vivo, Arabidopsis thaliana
Arabidopsis RACK1A = molecular target: T1, Arabidopsis RACK1A (Arabidopsis thaliana, UniProt O24456); experiment: western blot of RACK1A tyrosine phosphorylation in Arabidopsis leaves under heat stress; assay type: in vivo; settings: 42° C. for three hours, western blot, antibody to phosphorylated Y248
T1 construct: from tissue; host or cells: Arabidopsis plant leaves
Experimental: In the examples described herein, the test compounds (e.g., SD-29 or analogs thereof) were dissolved in dimethyl sulfoxide (DMSO) to provide a 20 mM concentration. Micromolar concentrations were then prepared as needed by addition to the water incubation media. Unless stated otherwise, the experimental plants were incubated with the roots immersed in the water containing the compound. The control plants received only DMSO in the same amount as that of the compound. In the second group (FIG. 3), Arabidopsis plants were held at 42° C. for six hours and compared to control plants held at about 22° C. The Arabidopsis plant in the experimental group was treated with 60 μM SD-29 in water. A control plant received water and DMSO. Lysates were then prepared from the leaves and western blots were performed using immobilized mouse anti-pTRY and Arabidopsis-anti RAC[…]. […] A similar experiment was carried out using analog SD-29-9 and SD-29 at 42° C. for three hours. […] A western blot was then performed using an antibody that was raised targeting phosphorylated […] residue of RAC[…].

Chain of RACK1A (O24456 whole entry): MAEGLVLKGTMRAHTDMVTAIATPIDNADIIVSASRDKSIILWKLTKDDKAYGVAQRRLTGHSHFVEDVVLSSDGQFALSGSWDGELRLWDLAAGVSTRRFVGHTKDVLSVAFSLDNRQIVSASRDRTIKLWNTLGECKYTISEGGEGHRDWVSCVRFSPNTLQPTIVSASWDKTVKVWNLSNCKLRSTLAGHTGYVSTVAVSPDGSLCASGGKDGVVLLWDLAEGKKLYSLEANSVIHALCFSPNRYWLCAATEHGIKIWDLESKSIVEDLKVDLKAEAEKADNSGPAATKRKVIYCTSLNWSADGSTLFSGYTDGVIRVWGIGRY
T1 sequence (O24456 whole entry): as above

| SMILES | tyrosine phosphorylation (Y248) based homodimerization of RACK1A proteins (RACK1A) | UV-B induced cell death in yeast cells (AA) [1] | also measured |
| --- | --- | --- | --- |
| COc1ccc2[nH]cc(CC(N)C(=O)O)c2c1 (stereo not shown) [SD-125] | prevent tyrosine phosphorylation (Y248) based homodimerization of RACK1A proteins |  |  |
| Nn1c(SCc2ccc(F)cc2)nnc1-c1ccc(Cl)cc1 [SD-29-7] |  | did not protect the cells |  |
| COc1ccc(-c2nnc(SCC(=O)O)n2N)cc1 [SD-29-12] |  | effective to prevent UV-B induced cell death | UV-B induced cell death in Y248F mutant yeast (YY) (Y248F mutant yeast (YY)): failed to provide protection from UV-B induced cell death; salt sensitivity when applied to a plant (plant): induces salt sensitivity; high temperature stress induced deformations in Arabidopsis plants (Arabidopsis plants; 42° C., vs vehicle control (DMSO)): very effective in preventing high temperature stress induced deformations; heat sensitivity when applied to a plant (Arabidopsis plants; in vivo): does not induce heat sensitivity |
| Cc1ccc2[nH]cc(C(O)C(F)(F)F)c2c1 (stereo not shown) [SD-34] | prevent tyrosine phosphorylation (Y248) based homodimerization of RACK1A proteins |  |  |
| COc1cc(-c2nnc(SCC(=O)Nc3ccc(Oc4ccccc4)cc3)n2N)cc(OC)c1OC [SD-29-11] | prevent tyrosine phosphorylation (Y248) based homodimerization of RACK1A proteins | effective to protect yeast cells from UV-B induced cell death |  |
| Cc1cc(Cl)ccc1NC(=O)CSc1nnc(-c2cccc(Cl)c2)n1N [SD-29-9] | prevent tyrosine phosphorylation (Y248) based homodimerization of RACK1A proteins | effective to protect yeast cells from UV-B induced cell death | Arabidopsis RACK1A tyrosine phosphorylation at increased temperature (Arabidopsis RACK1A): effective to prevent Arabidopsis RACK1A tyrosine phosphorylation at increased temperature |
